Laboratory results: PubChem BioAssay (NCI)
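Five compound concentrations were applied to cells in 96-well plates for 48 hours; endpoints were derived by simple linear interpolation of the resulting dose-response curve. GI50 is the concentration that inhibits growth by half. TGI: total growth inhibition.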

Experiments:
Assay in all cases: NCI anticancer screen, dose series, 48 h
786-0 renal = test system: 786-0 renal
A498 renal = test system: A498 renal
A549 NSCLC = test system: A549 NSCLC
ACHN renal = test system: ACHN renal
BT-549 breast = test system: BT-549 breast
CAKI-1 renal = test system: CAKI-1 renal
CCRF-CEM leukemia = test system: CCRF-CEM leukemia
COLO 205 colon = test system: COLO 205 colon
DU-145 prostate = test system: DU-145 prostate
EKVX NSCLC = test system: EKVX NSCLC
HCC-2998 colon = test system: HCC-2998 colon
HCT-116 colon = test system: HCT-116 colon
HCT-15 colon = test system: HCT-15 colon
HL-60(TB) leukemia = test system: HL-60(TB) leukemia
HOP-62 NSCLC = test system: HOP-62 NSCLC
HOP-92 NSCLC = test system: HOP-92 NSCLC
HS 578T breast = test system: HS 578T breast
HT29 colon = test system: HT29 colon
IGROV1 ovarian = test system: IGROV1 ovarian
K-562 leukemia = test system: K-562 leukemia
KM12 colon = test system: KM12 colon
LOX IMVI melanoma = test system: LOX IMVI melanoma
M14 melanoma = test system: M14 melanoma
MALME-3M melanoma = test system: MALME-3M melanoma
MCF7 breast = test system: MCF7 breast
MDA-MB-231 breast = test system: MDA-MB-231 breast
MDA-MB-435 = test system: MDA-MB-435
MDA-MB-468 breast = test system: MDA-MB-468 breast
MOLT-4 leukemia = test system: MOLT-4 leukemia
NCI-H226 lung = test system: NCI-H226 lung
NCI-H23 lung = test system: NCI-H23 lung
NCI-H460 lung = test system: NCI-H460 lung
NCI-H522 lung = test system: NCI-H522 lung
NCI/ADR-RES ovarian = test system: NCI/ADR-RES ovarian
OVCAR-3 ovarian = test system: OVCAR-3 ovarian
OVCAR-4 ovarian = test system: OVCAR-4 ovarian
OVCAR-5 ovarian = test system: OVCAR-5 ovarian
OVCAR-8 ovarian = test system: OVCAR-8 ovarian
PC-3 prostate = test system: PC-3 prostate
RPMI-8226 leukemia = test system: RPMI-8226 leukemia
RXF 393 renal = test system: RXF 393 renal
SF-268 CNS = test system: SF-268 CNS
SF-295 CNS = test system: SF-295 CNS
SF-539 CNS = test system: SF-539 CNS
SK-MEL-2 melanoma = test system: SK-MEL-2 melanoma
SK-MEL-28 melanoma = test system: SK-MEL-28 melanoma
SK-MEL-5 melanoma = test system: SK-MEL-5 melanoma
SK-OV-3 ovarian = test system: SK-OV-3 ovarian
SN12C renal = test system: SN12C renal
SNB-19 CNS = test system: SNB-19 CNS
SNB-75 CNS = test system: SNB-75 CNS
SR leukemia = test system: SR leukemia
SW-620 colon = test system: SW-620 colon
T-47D breast = test system: T-47D breast
TK-10 renal = test system: TK-10 renal
U251 CNS = test system: U251 CNS
UACC-257 melanoma = test system: UACC-257 melanoma
UACC-62 melanoma = test system: UACC-62 melanoma
UO-31 renal = test system: UO-31 renal

COC(=O)CNC(=O)COc1c(OC)c(OC)cc2oc(-c3cccc(C(=O)Nc4ccc(Cl)cc4)c3)cc(=O)c12
GI50 (786-0 renal): 5.19 µM | TGI (786-0 renal): 17.2 µM | GI50 (A498 renal): 16.3 µM | TGI (A498 renal): 34.5 µM | GI50 (A549 NSCLC): 7.25 µM | TGI (A549 NSCLC): 20.6 µM | GI50 (ACHN renal): 5.84 µM | TGI (ACHN renal): 18.7 µM | GI50 (BT-549 breast): 3.05 µM | TGI (BT-549 breast): 12.3 µM | GI50 (CAKI-1 renal): 18.9 µM | TGI (CAKI-1 renal): 41.6 µM | GI50 (CCRF-CEM leukemia): > 100 µM | TGI (CCRF-CEM leukemia): > 100 µM | GI50 (COLO 205 colon): 4.19 µM | TGI (COLO 205 colon): 17.8 µM | GI50 (DU-145 prostate): 10.6 µM | TGI (DU-145 prostate): 28.3 µM | GI50 (EKVX NSCLC): 12.4 µM | TGI (EKVX NSCLC): 30.1 µM | GI50 (HCC-2998 colon): 15.4 µM | TGI (HCC-2998 colon): 70.8 µM | GI50 (HCT-116 colon): 13.9 µM | TGI (HCT-116 colon): 48.5 µM | GI50 (HCT-15 colon): 14.8 µM | TGI (HCT-15 colon): > 100 µM | GI50 (HL-60(TB) leukemia): 13.3 µM | TGI (HL-60(TB) leukemia): > 100 µM | GI50 (HOP-62 NSCLC): 3.56 µM | TGI (HOP-62 NSCLC): 11.5 µM | GI50 (HOP-92 NSCLC): 4.04 µM | TGI (HOP-92 NSCLC): 25.9 µM | GI50 (HS 578T breast): 4.28 µM | TGI (HS 578T breast): 28.5 µM | GI50 (HT29 colon): 6.79 µM | TGI (HT29 colon): > 100 µM | GI50 (IGROV1 ovarian): 11.4 µM | TGI (IGROV1 ovarian): 24.8 µM | GI50 (K-562 leukemia): 25.6 µM | TGI (K-562 leukemia): > 100 µM | GI50 (KM12 colon): 27.5 µM | TGI (KM12 colon): > 100 µM | GI50 (LOX IMVI melanoma): 5.02 µM | TGI (LOX IMVI melanoma): 19.5 µM | GI50 (M14 melanoma): 7.98 µM | TGI (M14 melanoma): 25 µM | GI50 (MALME-3M melanoma): 4.75 µM | TGI (MALME-3M melanoma): 17.7 µM | GI50 (MCF7 breast): 6.05 µM | TGI (MCF7 breast): 23.9 µM | GI50 (MDA-MB-231 breast): 3.57 µM | TGI (MDA-MB-231 breast): 13 µM | GI50 (MDA-MB-435): 6.57 µM | TGI (MDA-MB-435): 21.9 µM | GI50 (MDA-MB-468 breast): 27.2 µM | TGI (MDA-MB-468 breast): > 100 µM | GI50 (MOLT-4 leukemia): > 100 µM | TGI (MOLT-4 leukemia): > 100 µM | GI50 (NCI-H226 lung): 4.01 µM | TGI (NCI-H226 lung): 27.6 µM | GI50 (NCI-H23 lung): 7.19 µM | TGI (NCI-H23 lung): 20 µM | GI50 (NCI-H460 lung): 4.03 µM | TGI (NCI-H460 lung): 15.1 µM | GI50 (NCI-H522 lung): 7.22 µM | TGI (NCI-H522 lung): 20.1 µM | GI50 (NCI/ADR-RES ovarian): 9.62 µM | TGI (NCI/ADR-RES ovarian): 73.4 µM | GI50 (OVCAR-3 ovarian): 12.4 µM | TGI (OVCAR-3 ovarian): 37.5 µM | GI50 (OVCAR-4 ovarian): 2.95 µM | TGI (OVCAR-4 ovarian): 10.8 µM | GI50 (OVCAR-5 ovarian): 7.2 µM | TGI (OVCAR-5 ovarian): 40.1 µM | GI50 (OVCAR-8 ovarian): 3.64 µM | TGI (OVCAR-8 ovarian): 11.8 µM | GI50 (PC-3 prostate): 10.3 µM | TGI (PC-3 prostate): 33.7 µM | GI50 (RPMI-8226 leukemia): 6.51 µM | TGI (RPMI-8226 leukemia): > 100 µM | GI50 (RXF 393 renal): 3.54 µM | TGI (RXF 393 renal): 14.9 µM | GI50 (SF-268 CNS): 15.1 µM | TGI (SF-268 CNS): 42.9 µM | GI50 (SF-295 CNS): 13.9 µM | TGI (SF-295 CNS): 26.9 µM | GI50 (SF-539 CNS): 8.6 µM | TGI (SF-539 CNS): 20.9 µM | GI50 (SK-MEL-2 melanoma): 10.1 µM | TGI (SK-MEL-2 melanoma): 25 µM | GI50 (SK-MEL-28 melanoma): 5.9 µM | TGI (SK-MEL-28 melanoma): 18.9 µM | GI50 (SK-MEL-5 melanoma): 3.75 µM | TGI (SK-MEL-5 melanoma): 14.7 µM | GI50 (SK-OV-3 ovarian): 11.1 µM | TGI (SK-OV-3 ovarian): 23.6 µM | GI50 (SN12C renal): 4.28 µM | TGI (SN12C renal): 17 µM | GI50 (SNB-19 CNS): 10.6 µM | TGI (SNB-19 CNS): 22.4 µM | GI50 (SNB-75 CNS): 11.9 µM | TGI (SNB-75 CNS): 37.4 µM | GI50 (SR leukemia): 9.98 µM | TGI (SR leukemia): > 100 µM | GI50 (SW-620 colon): 14 µM | TGI (SW-620 colon): 69.7 µM | GI50 (T-47D breast): 8.16 µM | TGI (T-47D breast): 31.1 µM | GI50 (TK-10 renal): 16.1 µM | TGI (TK-10 renal): 34.6 µM | GI50 (U251 CNS): 4.82 µM | TGI (U251 CNS): 16.5 µM | GI50 (UACC-257 melanoma): 7.35 µM | TGI (UACC-257 melanoma): 24.9 µM | GI50 (UACC-62 melanoma): 6.1 µM | TGI (UACC-62 melanoma): 19.4 µM | GI50 (UO-31 renal): 13.8 µM | TGI (UO-31 renal): 26.7 µM
